Experimental data taken from ChEMBL document CHEMBL1201861, “Genomics of Drug Sensitity in Cancer screening data, Wellcome Trust Sanger Institute”.
pIC50: −log10 of the molar value.

Legend:
Assay in all cases: cells
[1] = test system: TGW; assay type: functional, cell-based; conditions: Homo sapiens;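 further: growth inhibition of human TGW cells, read out with a cell viability assay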
Description: SANGER: Inhibition of human TGW cell growth in a cell viability assay.

[2] = test system: OCI-AML2; assay type: functional, cell-based; conditions: Homo sapiens;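 further: growth inhibition of OCI-AML2 cells, read out with a cell viability assay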
Description: SANGER: Inhibition of human OCI-AML2 cell growth in a cell viability assay.

[3] = test system: SCH; assay type: functional, cell-based, Homo sapiens; conditions: Homo sapiens, SCH;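 further: growth inhibition of human SCH cells, read out in a cell viability assay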
Description: SANGER: Inhibition of human SCH cell growth in a cell viability assay.

[4] = test system: ES7; assay type: functional, cell-based, Homo sapiens; conditions: Homo sapiens, ES7;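 further: growth inhibition of cultured human ES7 cells, read out as cell viability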
Description: SANGER: Inhibition of human ES7 cell growth in a cell viability assay.

[5] = test system: ES5; assay type: functional, cell-based, Homo sapiens; conditions: Homo sapiens, ES5;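 further: growth inhibition of human ES5 cells, read out by a cell viability assay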
[6] = test system: HuTu80; assay type: functional, cell-based, Homo sapiens, HUTU-80; conditions: Homo sapiens, HuTu80;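 further: growth inhibition of HuTu80 human cells, determined with a cell viability readout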
Description: SANGER: Inhibition of human HUTU-80 cell growth in a cell viability assay.

[7] = test system: TE-10; assay type: functional, cell-based, Homo sapiens; conditions: Homo sapiens, TE-10;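 further: growth inhibition of TE-10 cells, measured by a cell viability assay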
Description: SANGER: Inhibition of human TE-10 cell growth in a cell viability assay.

[8] = test system: MEG-01; assay type: functional, cell-based; conditions: Homo sapiens;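 further: growth inhibition of MEG-01 cells, read out by a cell viability assay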
Description: SANGER: Inhibition of human MEG-01 cell growth in a cell viability assay.

[9] = test system: NB7; assay type: functional, cell-based; conditions: Homo sapiens;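 further: growth inhibition of NB7 cells, read out with a cell viability assay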
Description: SANGER: Inhibition of human NB7 cell growth in a cell viability assay.

[10] = test system: HCE-T; assay type: functional, cell-based, Homo sapiens; conditions: Homo sapiens, HCE-T;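 further: cell viability assay read-out, reporting inhibition of HCE-T cell growth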
Description: SANGER: Inhibition of human HCE-T cell growth in a cell viability assay.

[11] = test system: LOX IMVI; assay type: functional, cell-based; conditions: Homo sapiens
Description: SANGER: Inhibition of human LOXIMVI cell growth in a cell viability assay.

[12] = test system: JVM-3; assay type: functional, cell-based; conditions: Homo sapiens;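 further: growth inhibition of human JVM-3 cells, read out with a cell viability assay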
Description: SANGER: Inhibition of human JVM-3 cell growth in a cell viability assay.

[13] = test system: MS-1; assay type: functional, cell-based; conditions: Homo sapiens;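 further: growth inhibition of MS-1 cells, read out by cell viability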
Description: SANGER: Inhibition of human MS-1 cell growth in a cell viability assay.

[14] = test system: NB10; assay type: functional, cell-based, Homo sapiens; conditions: Homo sapiens, NB10;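 further: growth inhibition of NB10 cells, read out by a cell viability assay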
Description: SANGER: Inhibition of human NB10 cell growth in a cell viability assay.

[15] = test system: MN-60; assay type: functional, cell-based; conditions: Homo sapiens;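 further: growth inhibition of the MN-60 cell line, determined with a cell viability assay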
Description: SANGER: Inhibition of human MN-60 cell growth in a cell viability assay.

[16] = test system: NCI-H1355; assay type: functional, cell-based, Homo sapiens; conditions: Homo sapiens, NCI-H1355;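 further: growth inhibition of human NCI-H1355 cells, read out by a cell viability assay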
Description: SANGER: Inhibition of human NCI-H1355 cell growth in a cell viability assay.

[17] = test system: GB-1; assay type: functional, cell-based, Homo sapiens; conditions: Homo sapiens, GB-1;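 further: growth of GB-1 cells judged by a viability assay, IC50 marks the concentration inhibiting growth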
Description: SANGER: Inhibition of human GB-1 cell growth in a cell viability assay.

[18] = test system: SNU-5; assay type: functional, cell-based; conditions: Homo sapiens;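 further: cell viability readout used to measure growth inhibition in human NCI-SNU-5 cells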
Description: SANGER: Inhibition of human NCI-SNU-5 cell growth in a cell viability assay.

[19] = test system: NCI-H1650; assay type: functional, cell-based, Homo sapiens; conditions: Homo sapiens, NCI-H1650;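 further: growth inhibition of human NCI-H1650 cells measured by a cell viability assay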
Description: SANGER: Inhibition of human NCI-H1650 cell growth in a cell viability assay.

[20] = test system: KNS-81-FD; assay type: functional, cell-based, Homo sapiens; conditions: Homo sapiens, KNS-81-FD;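 further: growth inhibition of KNS-81-FD cells, read out with a cell viability assay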
Description: SANGER: Inhibition of human KNS-81-FD cell growth in a cell viability assay.

[21] = test system: L-363; assay type: functional, cell-based; conditions: Homo sapiens
Description: SANGER: Inhibition of human L-363 cell growth in a cell viability assay.

[22] = test system: LC-2-ad; assay type: functional, cell-based, Homo sapiens; conditions: Homo sapiens, LC-2-ad;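 further: growth inhibition of human LC-2-ad cells, read out with a cell viability assay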
Description: SANGER: Inhibition of human LC-2-ad cell growth in a cell viability assay.

[23] = test system: SJSA-1; assay type: functional, cell-based, Homo sapiens; conditions: Homo sapiens, SJSA-1;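 further: growth inhibition of human SJSA-1 cells, read out through a cell viability measurement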
Description: SANGER: Inhibition of human SJSA-1 cell growth in a cell viability assay.

[24] = test system: SF-126; assay type: functional, cell-based, Homo sapiens; conditions: Homo sapiens, SF-126;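 further: growth inhibition of human SF126 cells, read out with a cell viability assay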
Description: SANGER: Inhibition of human SF126 cell growth in a cell viability assay.

[25] = test system: RKO; assay type: functional, cell-based, Homo sapiens; conditions: Homo sapiens, RKO;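 further: growth inhibition of human RKO cells, read out with a cell viability assay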
[26] = test system: KP-N-YN; assay type: functional, cell-based; conditions: Homo sapiens;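 further: growth inhibition of KP-N-YN cells, read out with a cell viability assay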
Description: SANGER: Inhibition of human KP-N-YN cell growth in a cell viability assay.

[27] = test system: BB49-HNC; assay type: functional, cell-based, Homo sapiens; conditions: Homo sapiens, BB49-HNC;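 further: cell viability assay read-out, reported as inhibition of BB49-HNC cell growth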
Description: SANGER: Inhibition of human BB49-HNC cell growth in a cell viability assay.

[28] = test system: TGBC24TKB; assay type: functional, cell-based, Homo sapiens; conditions: Homo sapiens, TGBC24TKB;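 further: growth inhibition of human TGBC24TKB cells, read out with a cell viability assay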
Description: SANGER: Inhibition of human TGBC24TKB cell growth in a cell viability assay.

Measured: pIC50

C=C1C(=O)O[C@@H]2C3O[C@]3(C)CC/C=C(\C)CC[C@@H]12 (stereo not given in full)
not listed: [28]
< 5.30: all other assays above

CC1=C2C[C@H]3[C@@H](CC=C4C[C@@H](O)CC[C@@]43C)[C@@H]2CC[C@]12O[C@@H]1C[C@H](C)CN[C@H]1[C@H]2C [CYCLOPAMINE]
not listed: [28]
< 4.80: all other assays above

CS(=O)(=O)CCNCc1ccc(-c2ccc3ncnc(Nc4ccc(OCc5cccc(F)c5)c(Cl)c4)c3c2)o1 [LAPATINIB]
not listed: [26] | [28]
< 5.70: all other assays above

CCc1nc(N)nc(N)c1-c1ccc(Cl)cc1 [PYRIMETHAMINE]
4.89: [11]
4.83: [4]
4.92: [6]
5.42: [23]
4.93: [8]
4.77: [3]
5.07: [2]
not listed: [28]
< 4.70: all other assays above

O=C(/C=C/c1ccccc1)NC(NC(=S)Nc1cccc2cccnc12)C(Cl)(Cl)Cl (stereo not given) [SALUBRINAL]
4.80: [2]
4.93: [6]
4.87: [21]
not listed: [28]
< 4.80: all other assays above

CN1CCN(CCOc2cc(OC3CCOCC3)c3c(Nc4c(Cl)ccc5c4OCO5)ncnc3c2)CC1 [SARACATINIB]
5.78: [7]
5.75: [17]
6.63: [8]
not listed: [3] | [19] | [26]
< 5.70: all other assays above

CO[C@H]1C[C@@H]2CC[C@@H](C)[C@@](O)(O2)C(=O)C(=O)N2CCCC[C@H]2C(=O)O[C@H]([C@H](C)C[C@@H]2CC[C@@H](O)[C@H](OC)C2)CC(=O)[C@H](C)/C=C(\C)[C@@H](O)[C@@H](OC)C(=O)[C@H](C)C[C@H](C)/C=C/C=C/C=C/1C [SIROLIMUS]
9.00: [16]
8.26: [28]
9.37: [22]
8.48: [7]
7.30: [25]
7.35: [21]
8.35: [6]
7.52: [24]
not listed: [3] | [26]
< 7.00: all other assays above

CNC(=O)c1cc(Oc2ccc(NC(=O)Nc3ccc(Cl)c(C(F)(F)F)c3)cc2)ccn1 [SORAFENIB]
5.79: [24]
5.74: [8]
not listed: [19] | [28]
< 5.40: all other assays above

CCC(=O)N1CCN(c2ccc(-n3c(=O)ccc4cnc5ccc(-c6cnc7ccccc7c6)cc5c43)cc2C(F)(F)F)CC1 [TORIN1]
7.81: [17] | [25]
6.73: [8]
7.38: [23]
6.85: [3]
7.48: [7]
8.55: [21]
7.67: [22]
6.52: [15]
6.43: [1]
8.03: [6]
6.90: [11]
7.78: [16]
7.36: [24]
6.96: [10]
6.87: [18] | [27]
7.24: [28]
6.95: [20]
6.40: [13]
7.54: [2]
not listed: [26]
< 5.92: all other assays above

Cc1cc(Nc2cc(N3CCN(C)CC3)nc(Sc3ccc(NC(=O)C4CC4)cc3)n2)n[nH]1 [TOZASERTIB]
6.02: [24]
6.06: [28]
7.06: [22]
6.19: [2]
6.56: [8]
5.95: [7]
7.28: [6]
6.51: [25]
not listed: [26]
< 5.70: all other assays above
